Where two headings read alike, the source gives them in different places.
How the values were obtained:
[1] = test system: cell lines originating from solid tumors; test: ChemPartner cell line screen, CellTiter Blue; assay type: cell-based; details: 72 h; 3 days of treatment; 10 μM is the highest dose tested; read-out: median IC50
Experimental: (§1) 131 cell lines were seeded in 96-well plate, black wall, tissue culture treated (from Corning, Cat.3904) and cultured following ATCC formulation. Cell viability after 72 hrs and 144 hrs was measured using Cell Titer Blue Viability Assay (from Promega, Cat. G8081, Lot. No. 0000190181) and fluorescence at 560/590 nm was recorded with Enspire (PerkinElmer). EC50 was calculated using XLfit software (5.5).

[2] = test system: hematological cancer cell lines; test: ChemPartner cell line screen, CellTiter Blue; assay type: cell-based; details: 72 h; 3 days of treatment; read-out: median IC50
Experimental: as §1

DOHH2 tumors = test: DOHH2 xenograft, tumor growth; assay type: in vivo, mouse
Experimental: DOHH2 xenograft study at Charles River's facility: […] On Day 1 of the study, animals were given a rehydration solution ad libitum in an effort to reduce dehydration during the dosing phase of the study. […] The dose volume was 10 mL/kg.

[3] = Experimental: Data collected were the same as in the Charles River xenograft study—clinical signs, body weight, tumor volume, blood samples from 3 mice/group for hematology and clinical chemistry (ALT, AST, BUN, creatinine, CK), and tissue samples collected and fixed from the same 3 mice. Liver, kidneys, and small intestine also were weighed.
(§2) The dose volume was 10 mL/kg.

[4] = Toxicology in DLBCL3 patient derived xenograft mice; assay type: in vivo, mouse; details: for Absolute Basophil cells: normal [0-0.2]; for Absolute Monocyte cells: normal [0-0.4]; for Basophil %: normal [0-2]; for Eosinophil %: normal [0-3.9]; for Monocyte %: normal [0-7.5]; for Absolute Neutrophil cells: normal [0.1- 2.4]; for WBC: normal [1.8-10.7]; for MPV: normal [5-20]; for RDW %: normal [12.4-27]
Experimental: as §2

[5] = rats; cited from earlier work
[6] = dogs; cited from earlier work
[7] = Toxicology in DOHH2 xenograft mice; details: for Reticulocyte % / Absolute Basophil cells / Absolute Eosinophil cells / Absolute Monocyte cells / Absolute Neutrophil cells / Absolute Lymphocyte cells / WBC / MPV / RBC / Hemoglobin / RDW % / MCH / MCHC / Hematocrit % / MCV / Platelets / Aspartate Transaminase / Bilirubin / Creatine PhosphoKinase / Creatinine: DOHH2 xenograft; for Absolute Basophil cells / Absolute Eosinophil cells: normal [0-0.2]; for Absolute Monocyte cells: normal [0-0.4]; for Absolute Neutrophil cells: normal [0.1-2.4]; for Absolute Lymphocyte cells: normal [0.9-9.3]; for WBC: normal [1.8-10.7]; for MPV: normal [5-20]; for RBC: normal [6.36-9.42]; for Hemoglobin: normal [11-15.1]; for RDW %: normal [12.4-27]; for MCH: normal [14.1-19.3]; for MCHC: normal [30.2-34.2]; for Hematocrit %: normal [35.1-45.4]; for MCV: normal [45.4-60.3]; for Platelets: normal [592-2972]; for Aspartate Transaminase / Bilirubin / Creatine PhosphoKinase / Creatinine: mean ± SEM, n = 3
Experimental: Mice were observed daily for clinical signs of toxicity and effects on body weight. After the last dose, three mice/group were euthanized and necropsied. At euthanasia, blood samples were taken for hematology analyses and to measure AST and CK activities and bilirubin and creatinine concentrations. At necropsy, samples of samples of femur, both kidneys, liver, small intestine, and injection site were taken and fixed.
The dose volume was 10 mL/kg. At the end of the two-to three-week dosing period, mice were euthanized and three/group were necropsied. Mice that died or were euthanized early for humane reasons also were necropsied. In life, mice were monitored regularly and weighed daily, and tumors were measured with digital Vernier calipers (Mitutoyo) every other day. Tumor volume was calculated as length (mm)×width (mm)2/2; length and width were the longest and shortest diameters, respectively. At euthanasia, at the end of the dosing period blood samples were taken for hematology analyses and clinical chemistry analyses that included AST and CK activities and bilirubin and creatinine concentrations (plus ALT activity and BUN concentration in the Jackson Laboratory study). At necropsy, samples of femur, both kidneys, liver, small intestine, and injection site were collected and fixed. These were subsequently processed and examined by light microscopy for histopathologic findings. Also at necropsy, the tumors were removed and divided in two. One piece was fixed in 10% neutral buffered formalin for 24 h at room temperature and embedded in paraffin; the other was snap frozen for RNA and protein analysis. Tumor growth inhibition (TGI) for all xenograft experiments was calculated following the formula:

[8] = DLBCL patient derived xenograft, PCLX-001 20 mg/kg/day
[9] = DLBCL patient derived xenograft, PCLX-001 50 mg/kg/day
[10] = c2, head missing (per Table 4: PCLX-001 10 mg/kg/day)
[11] = c3, head missing (per Table 4: PCLX-001 20 mg/kg/day)
[12] = c4, head missing (per Table 4: PCLX-001 50 mg/kg/day Interm.)
[13] = c5, head missing (per Table 4: PCLX-001 50 mg/kg/day)

Cc1c(N[S+](=O)([O-])c2c(Cl)cc(-c3ccnc(N4CCNCC4)c3)cc2Cl)c(CC(C)C)nn1C [PCLX-001]
IC50 [1]: ≥ 10000 nM | IC50 [2]: 166 nM | mean tumor growth inhibition (TGI) (DOHH2 tumors; 50 mg/kg daily with 5-day interruption, by day 16): 95% | reduction of tumor size (DOHH2 tumors; 50 mg/kg daily, by day 7): up to 70% | average tumor size (DOHH2 tumors; 50 mg/kg daily, day 7): 44.0±8.1 mm^3 | clinical pathology and anatomic pathology ([3]; 20, 50, 60 mg/kg/day): no clinical pathology or anatomic pathology findings | dehydration and body weight ([3]; 50 or 60 mg/kg/day): Dehydration and weight loss | clinical signs ([3]; most mice in groups given PCLX-001 (20, 50, 60 mg/kg/day)): Signs of ill health | loss of body weight ([4]; 50 mg/kg daily): ~15% | clinical signs, clinical pathology, anatomic pathology ([4]; 20 and 50 mg/kg): no clinical signs of toxicity, effects on clinical pathology parameters, or anatomic pathology findings | Hematocrit % [4, 8]: 47.13 ± 1.1% | MCV [4, 8]: 53.5 ± 0.36 | Neutrophil % [4, 8]: 57.17 ± 9.40% | RBC [4, 8]: 8.81 ± 0.15 M/ul | Absolute Basophil cells [4, 8]: 0 ± 0 | Absolute Monocyte cells [4, 8]: 0.23 ± 0.06 | Basophil % [4, 8]: 0.1 ± 0.04% | Eosinophil % [4, 8]: 0.26 ± 0.08% | Monocyte % [4, 8]: 15.48 ± 4.35% | Absolute Neutrophil cells [4, 8]: 0.86 ± 0.22 | WBC [4, 8]: 1.49 ± 0.24 K/ul | MPV [4, 8]: 4.93 | RDW % [4, 8]: 18.07 ± 0.03% | Hematocrit % [4, 9]: 42.47 ± 4.04% | MCV [4, 9]: 50.83 ± 0.35 | Neutrophil % [4, 9]: 58.04% | RBC [4, 9]: 8.36 ± 0.83 M/ul | Absolute Basophil cells [4, 9]: 0 ± 0 | Absolute Monocyte cells [4, 9]: 0.37 ± 0.07 | Basophil % [4, 9]: 0.04 ± 0.04% | Eosinophil % [4, 9]: 0.32 ± 0.1% | Monocyte % [4, 9]: 17.24% | Absolute Neutrophil cells [4, 9]: 1.28 ± 0.34 | Absolute Lymphocyte cells ([4]; DLBCL patient derived xenograft, PCLX-001 50 mg/kg/day, normal [0.9-9.3]): 0.52 ± ? .12 | WBC [4, 9]: 2.17 ± 0.5 K/ul | MPV [4, 9]: 5.27 ± 0.18 | RDW % [4, 9]: 20.37 ± 0.37% | MCH ([4]; DLBCL patient derived xenograft, PCLX-001 50 mg/kg/day, normal [14.1-19.3]): 12.5 pg | MCHC ([4]; DLBCL patient derived xenograft, PCLX-001 50 mg/kg/day, normal [30.2-34.2]): 24.53 ± 0.24 g/dL | Lymphocyte % ([4]; DLBCL patient derived xenograft, PCLX-001 50 mg/kg/day, normal [55.8-91.6]): 24.36 ± 2.93% | toxicity at high dose levels [5]: hematopoietic toxicity | toxicity at high dose levels [6]: hematopoietic toxicity | neutrophil and monocyte counts ([7]; 50 mg/kg daily): lower than normal in all three mice | RBC counts ([7]; 50 mg/kg every other day): lower than normal in all three mice | femoral bone marrow histopathology ([7]; 50 mg/kg groups): no histopathologic findings | Reticulocyte % ([7]; PCLX-001 10 mg/kg/day): 8.08 ± 1.58% | Absolute Basophil cells ([7]; PCLX-001 10 mg/kg/day): 0.01 ± 0 K/ul | Absolute Eosinophil cells ([7]; PCLX-001 10 mg/kg/day): 0.05 ± 0.02 K/ul | Absolute Monocyte cells ([7]; PCLX-001 10 mg/kg/day): 0.52 ± 0.06 K/ul | Absolute Neutrophil cells ([7]; PCLX-001 10 mg/kg/day): 4.89 ± 0.34 K/ul | Absolute Lymphocyte cells ([7]; PCLX-001 10 mg/kg/day): 0.83 ± ? .19 K/ul | WBC ([7]; PCLX-001 10 mg/kg/day): 6.3 ± 0.12 K/ul | MPV ([7]; PCLX-001 10 mg/kg/day): 6.77 ± 0.18 fL | RBC ([7]; PCLX-001 10 mg/kg/day): 9.45 ± 0.1 M/ul | Hemoglobin ([7]; PCLX-001 10 mg/kg/day): 14.13 ± 0.18 g/dL | RDW % ([7]; PCLX-001 10 mg/kg/day): 25.97 ± 0.46% | MCH ([7]; PCLX-001 10 mg/kg/day): 14.93 ± 0.03 pg | MCHC ([7]; PCLX-001 10 mg/kg/day): 32.73 ± 0.07 g/dL | Hematocrit % ([7]; PCLX-001 10 mg/kg/day): 43.2 ± 0.61% | MCV ([7]; PCLX-001 10 mg/kg/day): 45.7 ± 0.2 fL | Platelets ([7]; PCLX-001 10 mg/kg/day): 1490 ± 91.31 K/uL | Reticulocyte % ([7]; PCLX-001 20 mg/kg/day): 7.21 ± 0.49% | Absolute Basophil cells ([7]; PCLX-001 20 mg/kg/day): 0.01 ± 0 K/ul | Absolute Eosinophil cells ([7]; PCLX-001 20 mg/kg/day): 0.02 ± 0.01 K/ul | Absolute Neutrophil cells ([7]; PCLX-001 20 mg/kg/day): 3.94 ± 0.94 K/ul | Absolute Lymphocyte cells ([7]; PCLX-001 20 mg/kg/day): 0.84 ± ? .15 K/ul | WBC ([7]; PCLX-001 20 mg/kg/day): 5.41 ± 1.05 K/ul | MPV ([7]; PCLX-001 20 mg/kg/day): 7.63 ± 0.23 fL | RBC ([7]; PCLX-001 20 mg/kg/day): 9.03 ± 0.32 M/ul | Hemoglobin ([7]; PCLX-001 20 mg/kg/day): 13.97 ± 0.44 g/dL | RDW % ([7]; PCLX-001 20 mg/kg/day): 25.13 ± 0.65% | MCH ([7]; PCLX-001 20 mg/kg/day): 15.43 ± 0.3 pg | MCHC ([7]; PCLX-001 20 mg/kg/day): 33.03 ± 0.22 g/dL | Hematocrit % ([7]; PCLX-001 20 mg/kg/day): 42.33 ± 1.48% | MCV ([7]; PCLX-001 20 mg/kg/day): 46.9 ± 0.65 fL | Platelets ([7]; PCLX-001 20 mg/kg/day): 1234.7 ± 38.49 K/uL | Reticulocyte % ([7]; PCLX-001 50 mg/kg/day): 6.7 ± 0.3% | Reticulocyte % ([7]; PCLX-001 50 mg/kg/day Interm.): 13.28 ± 6.74% | Absolute Basophil cells ([7]; PCLX-001 50 mg/kg/day Interm.): 0 ± 0 K/ul | Absolute Eosinophil cells ([7]; PCLX-001 50 mg/kg/day Interm.): 0.05 ± 0.03 K/ul | Absolute Monocyte cells ([7]; PCLX-001 50 mg/kg/day Interm.): 0.91 ± 0.14 K/ul | Absolute Lymphocyte cells ([7]; PCLX-001 50 mg/kg/day Interm.): 1.51 ± 0.47 K/ul | WBC ([7]; PCLX-001 50 mg/kg/day Interm.): 5.94 ± 1.19 K/ul | MPV ([7]; PCLX-001 50 mg/kg/day Interm.): 7.17 ± 0.09 fL | RBC ([7]; PCLX-001 50 mg/kg/day Interm.): 8.07 ± 0.12 M/ul | Hemoglobin ([7]; PCLX-001 50 mg/kg/day Interm.): 12.6 ± 0.15 g/dL | RDW % ([7]; PCLX-001 50 mg/kg/day Interm.): 27.2 ± 1.82% | MCH ([7]; PCLX-001 50 mg/kg/day Interm.): 15.63 ± 0.12 pg | MCHC ([7]; PCLX-001 50 mg/kg/day Interm.): 31.90 ± 1.01 g/dL | Hematocrit % ([7]; PCLX-001 50 mg/kg/day Interm.): 39.53 ± 0.84% | MCV ([7]; PCLX-001 50 mg/kg/day Interm.): 49.07 ± 1.72 fL | Platelets ([7]; PCLX-001 50 mg/kg/day Interm.): 1673.7 ± 309.81 K/uL | Absolute Basophil cells ([7]; PCLX-001 50 mg/kg/day): 0 ± 0 K/ul | Absolute Eosinophil cells ([7]; PCLX-001 50 mg/kg/day): 0.01 ± 0.01 K/ul | Absolute Monocyte cells ([7]; PCLX-001 50 mg/kg/day): 0.19 ± 0.06 K/ul | Absolute Neutrophil cells ([7]; PCLX-001 50 mg/kg/day): 1.45 ± 0.22 K/ul | Absolute Lymphocyte cells ([7]; PCLX-001 50 mg/kg/day): 0.23 ± 0.06 K/ul | WBC ([7]; PCLX-001 50 mg/kg/day): 1.89 ± 0.31 K/ul | MPV ([7]; PCLX-001 50 mg/kg/day): 7 ± 0.3 fL | RBC ([7]; PCLX-001 50 mg/kg/day): 9.3 ± 0.17 M/ul | Hemoglobin ([7]; PCLX-001 50 mg/kg/day): 14.77 ± 0.23 g/dL | RDW % ([7]; PCLX-001 50 mg/kg/day): 25.8 ± 0.3% | MCH ([7]; PCLX-001 50 mg/kg/day): 15.9 ± 0.1 pg | MCHC ([7]; PCLX-001 50 mg/kg/day): 34.1 ± 0.1 g/dL | Hematocrit % ([7]; PCLX-001 50 mg/kg/day): 43.3 ± 0.7% | MCV ([7]; PCLX-001 50 mg/kg/day): 46.6 ± 0.2 fL | Platelets ([7]; PCLX-001 50 mg/kg/day): 900.7 ± 60.8 K/uL | Aspartate Transaminase [7, 10]: 104.33 ± 27.34 U/L | Bilirubin [7, 10]: 0.1 ± 0 mg/dL | Creatine PhosphoKinase [7, 10]: 81.7 ± 25.1 U/L | Creatinine [7, 10]: 0.3 ± 0.067 mg/dL | Aspartate Transaminase [7, 11]: 132.67 ± 55.29 U/L | Bilirubin [7, 11]: 0.1 ± 0 mg/dL | Creatine PhosphoKinase [7, 11]: 54 ± 14.7 U/L | Creatinine [7, 11]: 0.3 ± 0 mg/dL | Aspartate Transaminase [7, 12]: 125.67 ± 68.18 U/L | Bilirubin [7, 12]: 0.1 ± 0 mg/dL | Creatine PhosphoKinase [7, 12]: 92.3 ± 29.5 U/L | Creatinine [7, 12]: 0.3 ± 0 mg/dL | Aspartate Transaminase [7, 13]: 279.7 ± 34.17 U/L | Bilirubin [7, 13]: 0.1 ± 0 mg/dL | Creatine PhosphoKinase [7, 13]: 266.67 ± 69.9 U/L | Creatinine [7, 13]: 0.2 ± 0 mg/dL | Noteworthy findings after last dose ([7]; Group 2, Low-dose, 10 mg/kg): None | Noteworthy findings after last dose ([7]; Group 4, Mid-dose, 20 mg/kg): None | mortality ([7]; any dose): does not increase mortality
